Series [1] relates to HIV-1IIIB infected MT-4 cells. Description: Anti-HIV activity: protection of HIV-1IIIB infected MT-4 cells, MTT method. The format is cell-based. The settings on record: MOI 0.01, culture for 5 days, concentration inhibiting 50% of cytotoxicity due to HIV infection. The method, then: HIV-1IIIB infected MT-4 cells were added to 96-well microtiter plates (3.0×10^4/well, MOI (Multiplicity of infection): 0.01), together with test compounds at different concentrations immediately after the infection. After culture for 5 days in a carbon dioxide incubator at 37° C., the number of surviving cells was counted by MTT (tetrazolium) method (Pawels et al., J. Virol. Methods, 20, 309-321, 1988).
(In general: Tetrazolium dyes change colour on reduction, which living cells bring about.)

In a further series the test system is ICR male mice. Kind of series: Acute toxicity in ICR mice, intraperitoneal administration. It counts as in vivo. The settings on record: 3 per group, 50 mg/kg intraperitoneally, twice a day, for four days, number of dead animals after 5 days. As to the method:
Acute toxicity of the antiviral drug was examined. Three groups of 7 week-old, ICR male mice, each group consisting of 3 mice, were bred for one week. The compounds prepared in the Examples, dissolved in a physiological saline solution or distilled water, were intraperitoneally administered at a dose of 50 mg/kg, twice a day, for four days. After 5 days, the number of dead animals was examined.

pEC50: −log10 of the molar value.

What is called pEC50 is −log10 of the EC50, conventionally taken in molar units. Lower therefore signals a high EC50. Consider `O=C(N[C@@H](CCCNCc1ccccn1)C(=O)NCc1cccc2ccccc12)c1ccc(CNCc2ccccn2)cc1` [Compound No. 60, (S)-2-(4-(N-2-picolylaminomethyl)benzoylamino)-5-(N-2-picolylamino)valeric acid 1-naphthalenemethylamide], for which the pEC50 in series [1] was 6.80.
`O=C(N[C@@H](CCCNC1CCCc2cccnc21)C(=O)NCc1cccc2ccccc12)c1ccc(CNCc2ncc[nH]2)c2ccccc12` (stereo partly drawn) [Compound No. 41, (2S)-2-(4-((N-imidazol-2-ylmethyl)aminomethyl)naphthoylamino)-5-(5,6,7,8-tetrahydroquinolin-8-ylamino)valeric acid 1-naphthalenemethylamide]: the Dead mouse in the series on ICR male mice is 0/3. The pEC50 in series [1] is 7.46.
`O=C(N[C@@H](CCCNC1CCCc2cccnc21)C(=O)NCc1cccc2ccccc12)c1ccc(CNCc2ncc[nH]2)s1` (stereo partly drawn) [Compound No. 16, (2S)-2-(5-(N-(imidazol-2-ylmethyl)aminomethyl)thiophene-2-carbonylamino)-5-(5,6,7,8-tetrahydroquinolin-8-yl)aminovaleric acid 1-naphthalenemethylamide] gave a pEC50 in series [1] of 6.20.
`O=C(N[C@@H](CCCNC1CCCc2cccnc21)C(=O)NCc1cccc2ccccc12)c1ccc(CNCc2ccccn2)cc1` (stereo partly drawn) [Compound No. 65, (2S)-2-(4-(N-2-picolylaminomethyl)benzoylamino)-5-((5,6,7,8-tetrahydroquinolin-8-yl)amino)valeric acid 1-naphthalenemethylamide]: the Dead mouse in the series on ICR male mice is 0/3. Also, the pEC50 in series [1] is 7.03.
For `C[C@H](NC(=O)[C@H](CCCNC1CCCc2cccnc21)NC(=O)c1ccc(CNCc2ncc[nH]2)cc1)c1cccc2ccccc12` (stereo partly shown) [Compound No. 106] the same measures were 0/3 and 7.60.
On to `Cn1ccnc1CNCc1ccc(C(=O)N[C@@H](CCCNC2CCCc3cccnc32)C(=O)NCc2cccc3ccccc23)cc1` (stereo partly drawn) [Compound No. 96, (2S)-2-((1-methylimidazol-2-ylmethyl)aminomethyl)benzoylamino-5-(5,6,7,8-tetrahydroquinolyl-8-yl)aminovaleric acid 1-naphthalenemethyleneamide], for which, in the series with ICR male mice, the Dead mouse is given as 0/3. This compound also gave a pEC50 in series [1] of 7.47.
Take `C[C@H](NC(=O)[C@H](CCCNC1CCCc2cccnc21)NC(=O)c1ccc(CNCc2nccn2C)cc1)c1cccc2ccccc12` (stereo partly shown) [Compound No. 107]: the Dead mouse in the series with ICR male mice is listed as 0/3. Moreover, the pEC50 in series [1] was 7.46.
In series [1], `C[C@H](NC(=O)[C@H](CCCNC(=N)N)NC(=O)c1ccc(CNCc2ncc[nH]2)cc1)c1cccc2ccccc12` [Compound No. 95, N^α-4-(N-2-(imidazol-2-ylmethyl)aminomethyl)benzoyl-L-arginine (1′S)-1′-(1-naphthyl)ethylamide] had a pEC50 of 6.76.
The same measure, in the same setting: next, `O=C(N[C@@H](CCNCc1ccccn1)C(=O)NCc1cccc2ccccc12)c1ccc(CNCc2ccccn2)cc1` [Compound No. 61, (S)-2-(4-(N-2-picolylamino)methylbenzoylamino)-4-(N-2-picolylamino)butyric acid 1-naphthalenemethylamide]: 5.58; `C[C@H](NC(=O)[C@H](CCCNC1CCCc2cccnc21)NC(=O)c1ccc(CNCc2ccccn2)c2ccccc12)c1cccc2ccccc12` (stereo partly drawn) [Compound No. 85, (2S)-2-(4-(N-2-picolylaminomethyl)naphthoyl)amino-5-(5,6,7,8-tetrahydroquinolin-8-yl)aminovaleric acid (1′S)-1′-(1-naphthyl)ethylamide]: 7.54.
On the same count and under the same terms, the result for `NC(N)=NCCC[C@H](NC(=O)c1ccc(CNCc2ccccn2)cc1)C(=O)NCc1cccc2ccccc12` [Compound No. 43, N^α-(4-(N-2-picolylaminomethyl)benzoyl)-L-arginine 1-naphthalenemethylamide] reads 6.93.
With `C[C@H](NC(=O)[C@H](CCCNC(=N)N)NC(=O)c1ccc(CNCc2ncc[nH]2)c2ccccc12)c1cccc2ccccc12` [Compound No. 49, N^α-(4-(imidazol-2-ylmethyl)aminomethylnaphthoyl)-L-arginine(1′S)-(1′-(1-naphthyl)ethyl)amide], the Dead mouse in the series on ICR male mice is 0/3. The compound further gave a pEC50 in series [1] of 7.07.
In turn, `N=C(N)NCCC[C@H](NC(=O)c1ccc(CNCc2ccccn2)c2ccccc12)C(=O)NCc1cccc2ccccc12` [Compound No. 44, N^α-(4-(N-2-picolylaminomethyl)naphthoyl)-L-arginine 1-naphthalenemethylamide] showed a pEC50 in series [1] of 6.90.
On the same count and under the same terms, the result for `C[C@H](NC(=O)[C@H](CCCNC1CCCc2cccnc21)NC(=O)c1ccc(CNCc2ccccn2)cc1)c1cccc2ccccc12` (stereo partly drawn) [Compound No. 91, (2S)-2-(4-(N-2-picolylaminomethyl)benzoyl)amino-5-(5,6,7,8-tetrahydroquinolin-8-yl)aminovaleric acid (1′S)-1′-(1-naphthyl)ethylamide] reads 6.86.
`C[C@H](NC(=O)[C@H](CCCNC(=N)N)NC(=O)c1ccc(CNCc2nccn2C)c2ccccc12)c1cccc2ccccc12` [Compound No. 97, N^α-(4-((N-(1-methylimidazole-2-ylmethyl)amino)methyl)naphthalene-1-carbonyl)-L-arginine (1′S)-1′-(1-naphthyl)ethylamide]: the Dead mouse with ICR male mice was 0/3.
Still for that read-out and setting: the result for `C[C@H](NC(=O)[C@H](CCCNC(=N)N)NC(=O)c1ccc(CNCc2ccccn2)c2ccccc12)c1cccc2ccccc12` [Compound No. 99, N^α-(4-(N-2-picolylaminomethyl)naphthoyl)-L-arginine (1′S)-1′-(1-naphthyl)ethylamide] reads 0/3.
On to `Cn1cccc1CNCCC[C@H](NC(=O)c1ccc(CNCc2ccccn2)cc1)C(=O)NCc1cccc2ccccc12` [Compound No. 5, (S)-2-(4-(N-2-picolylaminomethyl)benzoylamino)-5-((1-methylpyrrol-2-ylmethyl)amino)valeric acid 1-naphthalenemethylamide], for which the pEC50 in series [1] is 6.09.
`O=C(N[C@@H](CCCNC1CCCc2cccnc21)C(=O)NCc1cccc2ccccc12)c1ccc(CNCc2ncc[nH]2)cc1` (stereo partly drawn) [Compound No. 39, (2S)-2-(4-((N-imidazol-2-ylmethyl)aminomethyl)benzoylamino)-5-(5,6,7,8-tetrahydroquinolin-8-ylamino)valeric acid 1-naphthalenemethylamide]: the Dead mouse in the series on ICR male mice was 0/3.
In series [1], `C[C@H](NC(=O)[C@H](CCCNC1=NCCN1)NC(=O)c1ccc(CNCc2ncc[nH]2)cc1)c1cccc2ccccc12` [Compound No. 110, (S)-2-(4-((N-imidazol-2-ylmethyl)aminomethyl)benzoyl)amino-5-(4,5-dihydroimidazol-2-yl)aminovaleric acid (1′S)-1′-(1-naphthyl)ethylamide] had a pEC50 of 6.46.
Consider `C[C@H](NC(=O)[C@H](CCCNC1CCCc2cccnc21)NC(=O)c1ccc(CNCc2ncc[nH]2)c2ccccc12)c1cccc2ccccc12` (stereo partly shown) [Compound No. 57], for which the Dead mouse in the series on ICR male mice was 0/3. In addition, in series [1], the pEC50 is 7.09.
The compound `O=C(N[C@@H](CCCNC1CCCc2cccnc21)C(=O)NCc1cccc2ccccc12)c1ccc(CNC2CCCc3cccnc32)cc1` (stereo partly drawn) [Compound No. 64, (2S)-2-(4-((5,6,7,8-tetrahydroquinolin-8-yl)aminomethyl)benzoylamino)-5-((5,6,7,8-tetrahydroquinolin-8-yl)amino)valeric acid 1-naphthalenemethylamide] had a pEC50 in series [1] of 6.94.
On the same count and under the same terms, next, `C[C@H](NC(=O)[C@H](CCCNC1CCCc2cccnc21)NC(=O)c1ccc(CNCc2ccccn2)nc1)c1cccc2ccccc12` (stereo partly drawn) [Compound No. 83, (2S)-2-(2-(N-2-picolylaminomethyl)pyridin-5-ylcarbonyl)amino-5-(5,6,7,8-tetrahydroquinolin-8-yl)aminovaleric acid (1′S)-1′-(1-naphthyl)ethylamide]: 6.92; `N=C(N)NCCC[C@H](NC(=O)c1ccc(CNCc2ncc[nH]2)cc1)C(=O)NCc1cccc2ccccc12` [Compound No. 53, N^α-(4-(imidazol-2-ylmethyl)aminomethylbenzoyl)-L-arginine 1-naphthalenemethylamide]: 6.82; `C[C@H](NC(=O)[C@H](CCCNC1=NCCCN1)NC(=O)c1ccc(CNCc2ncc[nH]2)cc1)c1cccc2ccccc12` [Compound No. 112, (S)-2-(4-((N-imidazol-2-ylmethyl)aminomethyl)benzoyl)amino-5-(3,4,5,6-tetrahydropyrimidine-2-yl)aminovaleric acid (1′S)-1′-(1-naphthyl)ethylamide]: 6.06.
On the same count and under the same terms, next, `Cn1cccc1CNCCC[C@H](NC(=O)c1ccc(CNCc2nccn2C)cc1)C(=O)NCc1cccc2ccccc12` [Compound No. 30, (S)-2-(4-((1-methylimidazol-2-ylmethyl)aminomethyl)benzoylamino)-5-((1-methylpyrrol-2-ylmethyl)amino)valeric acid 1-naphthalenemethylamide]: 6.18.
Consider `O=C(N[C@@H](CCCNC1CCCc2cccnc21)C(=O)NCCc1c[nH]c2ccccc12)c1ccc(CNCc2ccccn2)c2ccccc12` (stereo partly drawn) [Compound No. 92, (2S)-2-(4-(N-2-picolylaminomethyl)naphthoyl)amino-5-(5,6,7,8-tetrahydroquinolin-8-yl)aminovaleric acid 2-(3-indolyl)ethylamide], for which the Dead mouse with ICR male mice is on record as 0/3.
With `O=C(N[C@@H](CCCNCc1ncc[nH]1)C(=O)NCc1cccc2ccccc12)c1ccc(CNCc2ncc[nH]2)cc1` [Compound No. 21, (S)-2-(4-((imidazol-2-ylmethyl)aminomethyl)benzoylamino)-5-((imidazol-2-ylmethyl)amino)valeric acid 1-naphthalenemethylamide], in series [1], the negative-log EC50 (pEC50) is 6.08.

For the origin of these results see patent US7098215B2, “Nitrogenous compounds and antiviral drugs containing the same” (Kureha Chemical Industry Co., Ltd., priority 2000, dated 2006).
